Results on 4 compounds are retold here after ChEMBL document CHEMBL4420076, “Amylin and calcitonin receptor agonist” (2017).

Numbered stars: 1 amine (or outer) side, 2 acyl side, 3 side chain; on linkers, the order of the positions; unused ones are H or OH. Peptide text beside a SMILES is read from it. * marks the point of attachment. C20 diacid = O=C(O)CCCCCCCCCCCCCCCCCCC(=O)*; γGlu = O=C(O)[C@H](CCC(=O)[*:2])N[*:1]

For data set [1], the target named is T1, Calcitonin receptor (Homo sapiens, UniProt P30988).
T1 sequence (P30988 whole entry): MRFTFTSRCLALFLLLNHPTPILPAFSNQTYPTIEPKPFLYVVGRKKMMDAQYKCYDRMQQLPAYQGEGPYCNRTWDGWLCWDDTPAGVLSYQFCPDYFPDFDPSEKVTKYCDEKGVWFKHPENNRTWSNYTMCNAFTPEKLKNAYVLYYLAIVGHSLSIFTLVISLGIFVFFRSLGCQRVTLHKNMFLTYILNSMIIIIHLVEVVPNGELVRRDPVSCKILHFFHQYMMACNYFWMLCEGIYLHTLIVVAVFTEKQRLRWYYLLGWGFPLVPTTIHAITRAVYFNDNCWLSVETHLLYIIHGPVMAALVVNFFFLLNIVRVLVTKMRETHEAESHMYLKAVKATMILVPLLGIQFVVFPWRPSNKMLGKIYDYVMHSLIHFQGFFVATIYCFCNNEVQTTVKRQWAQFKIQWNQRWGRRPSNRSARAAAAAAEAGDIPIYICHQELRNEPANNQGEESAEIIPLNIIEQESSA
The data set is described as follows: Agonist activity at human calcitonin receptor expressed in BHK570 cells assessed as increase in intracellular cAMP concentration incubated for 3 hrs in presence of 10% FBS by CRE luciferase reporter gene assay. Type of data set: functional, cell-based.

A short description of data set [2]: Solubility in 100 mM glycylglycine buffer at pH 3.0 incubated for 18 hrs by UPLC analysis. Type of data set: physicochemical.
Data set [3] deals with T1, Calcitonin receptor. Nature of the data set: Agonist activity at human calcitonin receptor expressed in BHK570 cells assessed as increase in intracellular cAMP concentration incubated for 3 hrs in absence of albumin by CRE luciferase reporter gene assay. Type of data set: functional, cell-based. Background: Reporter assays use an easily measured gene product as a stand-in for the process of interest.

Data set [4] in a line: Stability in pH 7.5 buffer assessed as lag time for fibril formation at 1 uM by Thioflavin T based fluorescence assay. Format: physicochemical. The conditions noted are these: pH 7.5, 1 µM.
Data set [5] is described as follows: Stability in pH 7.5 buffer assessed as compound recovery at 1 uM by Thioflavin T based fluorescence assay. Format: physicochemical. The conditions noted are these: read-out: Drug recovery.
In data set [6] the target is T2, Amylin receptor AMY3; CALCR/RAMP3 (Homo sapiens, UniProt O60896+P30988).
T2 sequence (P30988 whole entry): T1 sequence (P30988 whole entry)
T2 sequence (O60896 whole entry): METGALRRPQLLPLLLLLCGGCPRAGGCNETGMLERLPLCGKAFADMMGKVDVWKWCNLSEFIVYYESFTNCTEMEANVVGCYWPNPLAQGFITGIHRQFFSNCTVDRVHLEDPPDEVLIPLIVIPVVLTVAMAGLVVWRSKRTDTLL
Nature of the data set: Agonist activity at human amylin receptor expressed in BHK570 cells co-expressing RAMP3 assessed as increase in intracellular cAMP concentration incubated for 3 hrs in presence of 10% FBS by CRE luciferase reporter gene assay. Format: functional, cell-based.

Another data set has as its system Rattus norvegicus. The data set is described as follows: Reduction in food intake in Sprague-Dawley rat at 3 nmol/kg measured 24 to 48 hrs post dose relative to control. Format: functional. More on the design: scale not given: the % may be the effect or the level left.
Data set [7] has as its target T2, Amylin receptor AMY3; CALCR/RAMP3. Nature of the data set: Agonist activity at human amylin receptor expressed in BHK570 cells co-expressing RAMP3 assessed as increase in intracellular cAMP concentration incubated for 3 hrs in absence of albumin by CRE luciferase reporter gene assay. Type of data set: functional, cell-based.
Data set [8] in a line: Solubility in 100 mM bistrispropane buffer at pH 7.0 incubated for 18 hrs by UPLC analysis. Format: physicochemical.
A short description of data set [9]: Solubility in 100 mM bistrispropane buffer at pH 7.5 incubated for 18 hrs by UPLC analysis. Format: physicochemical.
Data set [10] in a line: Solubility in 100 mM bistrispropane buffer at pH 8.0 incubated for 18 hrs by UPLC analysis. Type of data set: physicochemical.
Data set [11] can be described thus: Solubility in 100 mM glycylglycine buffer at pH 4.0 incubated for 18 hrs by UPLC analysis. Format: physicochemical.
Data set [12] is described as follows: Solubility in 100 mM glycylglycine buffer at pH 5.0 incubated for 18 hrs by UPLC analysis. Format: physicochemical.
Data set [13] is described as follows: Solubility in 100 mM bistrispropane buffer at pH 6.5 incubated for 18 hrs by UPLC analysis. Format: physicochemical.
Data set [14] in a line: Solubility in 100 mM bistrispropane buffer at pH 6.0 incubated for 18 hrs by UPLC analysis. Type of data set: physicochemical.
For data set [15], the target named is T2, Amylin receptor AMY3; CALCR/RAMP3. Nature of the data set: Displacement of [125I]-labeled rat amylin from human amylin receptor expressed in BHK tkts13 whole cells co-expressing RAMP3 incubated for 60 mins by scintillation proximity assay. Format: cell-based. For orientation: Displacement assays read how much labelled ligand stays bound in the presence of the test substance.

One may read the EC50 as the concentration that produces a half-maximal response. Usually solubility stands for the concentration that dissolves in the medium under given conditions. As a reminder, the IC50 is the midpoint of a concentration-inhibition curve.

Consider `CC(C)C[C@H](NC(=O)CNC(=O)[C@H](CO)NC(=O)[C@H](C)NC(=O)CC[C@H](NC(=O)CCCCCCCCCCCCCCCCCCC(=O)O)C(=O)O)C(=O)N[C@@H](CO)C(=O)N[C@H](C(=O)N[C@@H](C)C(=O)N[C@H](C(=O)N[C@@H](CC(C)C)C(=O)NCC(=O)N[C@@H](CCCNC(=N)N)C(=O)N[C@@H](CC(C)C)C(=O)N[C@@H](CO)C(=O)N[C@@H](CCC(N)=O)C(=O)N[C@@H](CCC(=O)O)C(=O)N[C@@H](CC(C)C)C(=O)N[C@@H](Cc1cnc[nH]1)C(=O)N[C@@H](CCC(=O)O)C(=O)N[C@@H](CC(C)C)C(=O)N[C@@H](CCC(N)=O)C(=O)N[C@H](C(=O)N[C@@H](Cc1ccc(O)cc1)C(=O)N1CCC[C@H]1C(=O)N[C@@H](CCCNC(=N)N)C(=O)N[C@H](C(=O)N[C@@H](CCC(=O)O)C(=O)N[C@H](C(=O)NCC(=O)N[C@@H](CO)C(=O)NCC(=O)N[C@H](C(=O)N[C@@H](Cc1ccc(O)cc1)C(N)=O)[C@@H](C)O)[C@@H](C)O)[C@@H](C)O)[C@@H](C)O)C(C)C)[C@@H](C)O`, for which the 50% effective concentration (EC50) is 0.054 nM at Calcitonin receptor [1], 0.065 nM at Calcitonin receptor [3], 0.105 nM in [6] and 0.057 nM in data set [7]. This compound also displayed a solubility at 18 h in data set [2] of at least 200 µM. Further, in data set [4], the Time turned out to be 0 h. Also, the remaining at 1 µM in data set [5] worked out at 23%. The same compound returned an Activity with Rattus norvegicus of 15%.

In the case of `CC(C)C[C@H](NC(=O)[C@H](C)NC(=O)[C@H](C)NC(=O)[C@@H](NC(=O)[C@H](CO)NC(=O)[C@H](CC(C)C)NC(=O)[C@H](CCC(=O)O)NC(=O)[C@H](CO)NC(=O)[C@H](C)NC(=O)CC[C@H](NC(=O)CCCCCCCCCCCCCCCCCCC(=O)O)C(=O)O)[C@@H](C)O)C(=O)NCC(=O)N[C@@H](CCCCN)C(=O)N[C@@H](CC(C)C)C(=O)N[C@@H](CO)C(=O)N[C@@H](C)C(=O)N[C@@H](CCC(=O)O)C(=O)N[C@@H](CC(C)C)C(=O)N[C@@H](Cc1cnc[nH]1)C(=O)N[C@@H](CCC(=O)O)C(=O)N[C@@H](CC(C)C)C(=O)N[C@@H](C)C(=O)N[C@H](C(=O)N[C@@H](Cc1ccc(O)cc1)C(=O)N1CCC[C@H]1C(=O)N[C@@H](CCCCN)C(=O)N[C@H](C(=O)N[C@@H](CCC(=O)O)C(=O)N[C@H](C(=O)NCC(=O)N[C@@H](CO)C(=O)NCC(=O)N[C@@H](CO)C(=O)N[C@@H](Cc1ccc(O)cc1)C(N)=O)[C@@H](C)O)[C@@H](C)O)[C@@H](C)O` ({C20 diacid-γGlu}-ASELSTAALGKLSAELHELATYPKTETGSGSY-NH2), the solubility at 18 h in data set [8], in data set [9], in data set [10], in data set [2], in data set [11] and in data set [12] was at least 200 µM throughout. Further, the solubility at 18 h in [13] and in [14] was at least 200 µM each time. Further, the EC50 at Calcitonin receptor [1] is 0.073 nM; at Calcitonin receptor [3], 0.037 nM; in data set [6] it was 0.093 nM; in data set [7], 0.051 nM. The Time in data set [4] was 0 h. The remaining at 1 µM in data set [5] came out at 100%. In data set [15], the 50% inhibitory concentration (IC50) was 0.588 nM.

With `CC(C)C[C@H](NC(=O)[C@H](C)NC(=O)[C@H](C)NC(=O)[C@@H](NC(=O)[C@H](CO)NC(=O)[C@H](CC(C)C)NC(=O)[C@H](CCC(=O)O)NC(=O)[C@H](CO)NC(=O)[C@H](C)NC(=O)CC[C@H](NC(=O)CCCCCCCCCCCCCCCCCCC(=O)O)C(=O)O)[C@@H](C)O)C(=O)NCC(=O)N[C@@H](CCCNC(=N)N)C(=O)N[C@@H](CC(C)C)C(=O)N[C@@H](CO)C(=O)N[C@@H](C)C(=O)N[C@@H](CCC(=O)O)C(=O)N[C@@H](CC(C)C)C(=O)N[C@@H](Cc1cnc[nH]1)C(=O)N[C@@H](CCC(=O)O)C(=O)N[C@@H](CC(C)C)C(=O)N[C@@H](C)C(=O)N[C@H](C(=O)N[C@@H](CC(C)C)C(=O)N1CCC[C@H]1C(=O)N[C@@H](CCCNC(=N)N)C(=O)N[C@H](C(=O)N[C@@H](CCC(=O)O)C(=O)N[C@H](C(=O)NCC(=O)N[C@@H](CO)C(=O)NCC(=O)N[C@@H](CO)C(=O)N[C@@H](Cc1ccccc1)C(N)=O)[C@@H](C)O)[C@@H](C)O)[C@@H](C)O` ({C20 diacid-γGlu}-ASELSTAALGRLSAELHELATLPRTETGSGSF-NH2), the solubility at 18 h in data set [8], in data set [9], in [10], in data set [2], in [11] and in data set [13] was at least 200 µM throughout. The compound also gave a solubility at 18 h in data set [14] of at least 200 µM. Moreover, the 50% effective concentration (EC50) at Calcitonin receptor [1] was 0.073 nM; at Calcitonin receptor [3], 0.04 nM; in data set [6], 0.094 nM; in data set [7] it was 0.05 nM. Also, the Time in data set [4] is above 45 h. The remaining at 1 µM in [5] worked out at 100%. Also, the IC50 in data set [15] was 1.36 nM.

Consider `CC(C)C[C@H](NC(=O)[C@H](C)NC(=O)[C@H](C)NC(=O)[C@@H](NC(=O)[C@H](CO)NC(=O)[C@H](CC(C)C)NC(=O)[C@H](CCC(=O)O)NC(=O)[C@H](CO)NC(=O)[C@H](C)NC(=O)CC[C@H](NC(=O)CCCCCCCCCCCCCCCCCCC(=O)O)C(=O)O)[C@@H](C)O)C(=O)NCC(=O)N[C@@H](CCCNC(=N)N)C(=O)N[C@@H](CC(C)C)C(=O)N[C@@H](CO)C(=O)N[C@@H](C)C(=O)N[C@@H](CCC(=O)O)C(=O)N[C@@H](CC(C)C)C(=O)N[C@@H](Cc1cnc[nH]1)C(=O)N[C@@H](CCC(=O)O)C(=O)N[C@@H](CC(C)C)C(=O)N[C@@H](C)C(=O)N[C@H](C(=O)N[C@@H](CC(C)C)C(=O)N1CCC[C@H]1C(=O)N[C@@H](CCCNC(=N)N)C(=O)N[C@H](C(=O)N[C@@H](CCC(=O)O)C(=O)N[C@H](C(=O)NCC(=O)N[C@@H](CO)C(=O)NCC(=O)N[C@@H](CO)C(=O)NCC(N)=O)[C@@H](C)O)[C@@H](C)O)[C@@H](C)O` ({C20 diacid-γGlu}-ASELSTAALGRLSAELHELATLPRTETGSGSG-NH2), for which the solubility at 18 h in [8], in [9], in data set [10], in data set [2], in data set [11] and in data set [12] was at least 200 µM throughout. Moreover, the solubility at 18 h in data set [13] and in [14] was at least 200 µM throughout. Further, the EC50 at Calcitonin receptor [1] was 0.239 nM; on Calcitonin receptor [3] it was 0.066 nM; in [6] it was 0.435 nM; in [7] it was 0.142 nM. Also, the Time in [4] was above 45 h. The remaining at 1 µM in data set [5] was 100%. In data set [15], the IC50 is 4.36 nM.
